Structures can show the parent of a compound that is named as a salt.

This passage reports IC50 results from patent US6967196B1, “Sulfonamide compounds and uses thereof” (Bristol-Myers Squibb Company, priority 1999, dated 2005).

One assay has as its system amyloid β production in transfected H4 (human neuroglioma) cells stably expressing APP constructs. The assay can be described thus: In vitro cell-based assay of inhibitors of amyloid β production (ELISA). The following applies: Homo sapiens, 16 h, transfected H4 cells stably expressing APP; approximately 16 hours incubation; amyloid β in medium by ELISA; Table B; read-out: ACTIVITY (IC50, inhibition of amyloid β production). Put shortly:
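Cells expressing wild-type or variant APP were plated ≥6 h before medium was replaced with compound-containing medium (initial screen 10-100 μM) and incubated ~16 h. Secreted Aβ in medium was quantified by sandwich ELISA (C-terminal-specific mouse monoclonal capture, N-terminal rabbit polyclonal detection) against an Aβ standard curve.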
On to `C[C@H](c1ccc(F)cc1COCc1cccnc1)N(c1cc(F)ccc1F)S(=O)(=O)c1ccc(Cl)cc1` [Example 380, 4-chloro-N-(2,5-difluorophenyl)-N-((1R)-1-{4-fluoro-2-[(3-pyridinylmethoxy)methyl]phenyl}ethyl)benzenesulfonamide], for which the IC50 (usually the concentration that gives 50% inhibition) was in the range of 50 to 100 nM. As to `CC(c1ccccc1OCCCCN(C)C(=O)CSc1ccccc1)N(c1cc(F)ccc1F)S(=O)(=O)c1ccc(Cl)cc1` (centres unmarked) [Example 384, N-{4-[2-(1-{[(4-chlorophenyl)sulfonyl]-2,5-difluoroanilino}ethyl)phenoxy]butyl}-N-methyl-2-(phenylsulfanyl)acetamide], the IC50 lay in the range of 50 to 100 nM. As to `CC(NC(=O)OCCc1cc(F)ccc1[C@@H](C)N(c1cc(F)ccc1F)S(=O)(=O)c1ccc(Cl)cc1)c1ccccc1` (stereo partly drawn) [Example 385, 2-[2-((1R)-1-{[(4-chlorophenyl)sulfonyl]-2,5-difluoroanilino}ethyl)-5-fluorophenyl]ethyl 1 phenylethylcarbamate], the IC50 lay in the range of 50 to 100 nM. Regarding `CC(c1ccccc1OCCCN(C)C(=O)C12CCC(C)(C(=O)O1)C2(C)C)N(c1cc(F)ccc1F)S(=O)(=O)c1ccc(Cl)cc1` (centres unmarked) [Example 387, N-{3-[2-(1-{[(4-chlorophenyl)sulfonyl]-2,5-difluoroanilino}ethyl)phenoxy]propyl}-N,4,7,7-tetramethyl-3-oxo-2-oxabicyclo[2.2.1]heptane-1-carboxamide], the IC50 is 50 to 100 nM. Still for that read-out and setting: the value for `C[C@H](c1ccccc1CCC(=O)NCc1ccc2c(c1)OCO2)N(c1cc(F)ccc1F)S(=O)(=O)c1ccc(Cl)cc1` [Example 388, N-(1,3-benzodioxol-5-ylmethyl)-3-[2-((1R)-1-{[(4-chlorophenyl)sulfonyl]-2,5-difluoroanilino}ethyl)phenyl]propanamide] was 50 to 100 nM. On to `C[C@H](c1ccccc1CCOC(=O)NCc1ccccc1)N(c1cc(F)ccc1F)S(=O)(=O)c1ccc(Cl)cc1` [Example 389, 2-[2-((1R)-1-{[(4-chlorophenyl)sulfonyl]-2,5-difluoroanilino}ethyl)phenyl]ethyl benzylcarbamate], for which the IC50 lay within 50 to 100 nM. Still for that read-out and setting: the result for `C[C@H](c1ccccc1Cn1ncnn1)N(c1cc(F)ccc1F)S(=O)(=O)c1ccc(Cl)cc1` [Example 396] reads 50 to 100 nM.

In the case of `CC(c1ccccc1OCCN(C)C(=O)N(C)C)N(c1cc(F)ccc1F)S(=O)(=O)c1ccc(Cl)cc1` (centres unmarked) [Example 397, 4-chloro-N-(2,5-difluorophenyl)-N-[1-(2-{2-[[(dimethylamino)carbonyl](methyl)amino]ethoxy}phenyl)ethyl]benzenesulfonamide], the half-maximal inhibitory concentration (IC50) was 50 to 100 nM. On the same count and under the same terms, the value for `CC(C)CNC(=O)OCc1cc(F)ccc1[C@@H](C)N(c1cc(F)ccc1F)S(=O)(=O)c1ccc(Cl)cc1` [Example 398, 2-((1R)-1-{[(4-chlorophenyl)sulfonyl]-2,5-difluoroanilino}ethyl)-5-fluorobenzyl isobutylcarbamate] was 50 to 100 nM; that for `O=C1CCC(=O)N1CCCOc1ccccc1CN(c1cc(F)ccc1F)S(=O)(=O)c1ccc(Cl)cc1` [Example 399, 4-chloro-N-(2,5-difluorophenyl)-N-{2-[3-(2,5-dioxo-1-pyrrolidinyl)propoxy]benzyl}benzenesulfonamide] was 50 to 100 nM; that for `C[C@H](c1ccc(F)cc1COCc1ccccn1)N(c1cc(F)ccc1F)S(=O)(=O)c1ccc(Cl)cc1` [Example 400, 4-chloro-N-(2,5-difluorophenyl)-N-((1R)-1-{4-fluoro-2-[(2-pyridinylmethoxy)methyl]phenyl}ethyl)benzenesulfonamide] was 50 to 100 nM. Take `C[C@H](c1ccccc1CCC(=O)NC1CCCCC1)N(c1cc(F)ccc1F)S(=O)(=O)c1ccc(Cl)cc1` [Example 401, 3-[2-((1R)-1-{[(4-chlorophenyl)sulfonyl]-2,5-difluoroanilino}ethyl)phenyl]-N-cyclohexylpropanamide]: the IC50 was 50 to 100 nM.

For `CC(CNC(=O)OCCc1ccccc1[C@@H](C)N(c1cc(F)ccc1F)S(=O)(=O)c1ccc(Cl)cc1)c1ccccc1` (stereo partly drawn) [Example 402, 2-[2-((1R)-1-{[(4-chlorophenyl)sulfonyl]-2,5-difluoroanilino}ethyl)phenyl]ethyl 2-phenylpropylcarbamate], the IC50 is 50 to 100 nM. For `C[C@H](c1ccccc1CCC(=O)Nc1ccccc1)N(c1cc(F)ccc1F)S(=O)(=O)c1ccc(Cl)cc1` [Example 403, 3-[2-((1R)-1-{[(4-chlorophenyl)sulfonyl]-2,5-difluoroanilino}ethyl)phenyl]-N-phenylpropanamide], the 50% inhibitory concentration (IC50) fell in the range of 50 to 100 nM.

The same assay, now with this note: transfected H4 cells stably expressing APP; approximately 16 hours incubation; amyloid β in medium by ELISA; Table B; read-out: ACTIVITY (IC50, inhibition of amyloid β production).
In the case of `CC(c1ccccc1OCCCNC(=O)c1cccnc1)N(c1cc(F)ccc1F)S(=O)(=O)c1ccc(Cl)cc1` (centres unmarked) [Example 359, N-{3-[2-(1-{[(4-chlorophenyl)sulfonyl]-2,5-difluoroanilino}ethyl)phenoxy]propyl}nicotinamide], the IC50 lay in the range of 50 to 100 nM. Turning to `CC(c1ccccc1OCCCN(C)C(=O)c1cccnc1)N(c1cc(F)ccc1F)S(=O)(=O)c1ccc(Cl)cc1` (centres unmarked) [Example 360, N-{3-[2-(1-{[(4-chlorophenyl)sulfonyl]-2,5-difluoroanilino}ethyl)phenoxy]propyl}-N-methylnicotinamide], the IC50 is 50 to 100 nM. On the same count and under the same terms, the value for `C[C@H](c1ccccc1OCCCN(C)C(=O)c1cccnc1)N(c1cc(F)ccc1F)S(=O)(=O)c1ccc(Cl)cc1` [Example 363, N-{3-[2-((1R)-1-{[(4-chlorophenyl)sulfonyl]-2,5-difluoroanilino}ethyl)phenoxy]propyl}-N-methylnicotinamide Hydrochloride] was 50 to 100 nM; that for `CN(CCCOc1ccccc1CN(c1cc(F)ccc1F)S(=O)(=O)c1ccc(Cl)cc1)C(=O)CCCCCN` [Example 366, 6-Amino-N-{3-[2-({[(4-chlorophenyl)sulfonyl]-2,5-difluoroanilino}methyl)phenoxy]propyl]-N-methylhexanamide Hydrochloride] was 50 to 100 nM. Take `CC(c1ccccc1OCCCC(=O)O)N(c1cc(F)ccc1F)S(=O)(=O)c1ccc(Cl)cc1` (centres unmarked) [Example 377, 4-[2-(1-{[(4-Chlorophenyl)sulfonyl]-2,5-difluoroanilino}ethyl)phenoxy]butanoic Acid]: the IC50 was 50 to 100 nM. As for `CNC(=O)CCCOc1ccccc1C(C)N(c1cc(F)ccc1F)S(=O)(=O)c1ccc(Cl)cc1` (centres unmarked) [Example 378, 4-[2-(1-{[(4-Chlorophenyl)sulfonyl]-2,5-difluoroanilino}ethyl)phenoxy]-N-methylbutanamide], the IC50 lay in the range of 50 to 100 nM. Still for that read-out and setting: the result for `CONC(=O)CCCOc1ccccc1C(C)N(c1cc(F)ccc1F)S(=O)(=O)c1ccc(Cl)cc1` (centres unmarked) [Example 379, 4-[2-(1-{[(4-Chlorophenyl)sulfonyl]-2,5-difluoroanilino}ethyl)phenoxy]-N-methoxybutanamide] reads 50 to 100 nM; that for `CNC(=O)COc1ccccc1C(C)N(c1cc(F)ccc1F)S(=O)(=O)c1ccc(Cl)cc1` (centres unmarked) [Example 381, [2-(1-{[(4-Chlorophenyl)sulfonyl]-2,5-difluoroanilino}ethyl)phenoxy]-N-methylacetamide], 50 to 100 nM.

For `CONC(=O)COc1ccccc1C(C)N(c1cc(F)ccc1F)S(=O)(=O)c1ccc(Cl)cc1` (centres unmarked) [Example 382, [2-(1-{[(4-Chlorophenyl)sulfonyl]-2,5-difluoroanilino}ethyl)phenoxy]-N-methoxyacetamide], the IC50 was 50 to 100 nM.
